Data on 14 molecules can be found in patent publication US12187723B2 (BRISTOL-MYERS SQUIBB COMPANY, priority 2019, dated 2025).

pIC50: −log10 of the molar value.

This experiment has as its target T1, human TLR8 (Homo sapiens, UniProt Q9NR97).
T1 construct: host or cells: HEK-Blue cells
T1 sequence (Q9NR97 27-1041): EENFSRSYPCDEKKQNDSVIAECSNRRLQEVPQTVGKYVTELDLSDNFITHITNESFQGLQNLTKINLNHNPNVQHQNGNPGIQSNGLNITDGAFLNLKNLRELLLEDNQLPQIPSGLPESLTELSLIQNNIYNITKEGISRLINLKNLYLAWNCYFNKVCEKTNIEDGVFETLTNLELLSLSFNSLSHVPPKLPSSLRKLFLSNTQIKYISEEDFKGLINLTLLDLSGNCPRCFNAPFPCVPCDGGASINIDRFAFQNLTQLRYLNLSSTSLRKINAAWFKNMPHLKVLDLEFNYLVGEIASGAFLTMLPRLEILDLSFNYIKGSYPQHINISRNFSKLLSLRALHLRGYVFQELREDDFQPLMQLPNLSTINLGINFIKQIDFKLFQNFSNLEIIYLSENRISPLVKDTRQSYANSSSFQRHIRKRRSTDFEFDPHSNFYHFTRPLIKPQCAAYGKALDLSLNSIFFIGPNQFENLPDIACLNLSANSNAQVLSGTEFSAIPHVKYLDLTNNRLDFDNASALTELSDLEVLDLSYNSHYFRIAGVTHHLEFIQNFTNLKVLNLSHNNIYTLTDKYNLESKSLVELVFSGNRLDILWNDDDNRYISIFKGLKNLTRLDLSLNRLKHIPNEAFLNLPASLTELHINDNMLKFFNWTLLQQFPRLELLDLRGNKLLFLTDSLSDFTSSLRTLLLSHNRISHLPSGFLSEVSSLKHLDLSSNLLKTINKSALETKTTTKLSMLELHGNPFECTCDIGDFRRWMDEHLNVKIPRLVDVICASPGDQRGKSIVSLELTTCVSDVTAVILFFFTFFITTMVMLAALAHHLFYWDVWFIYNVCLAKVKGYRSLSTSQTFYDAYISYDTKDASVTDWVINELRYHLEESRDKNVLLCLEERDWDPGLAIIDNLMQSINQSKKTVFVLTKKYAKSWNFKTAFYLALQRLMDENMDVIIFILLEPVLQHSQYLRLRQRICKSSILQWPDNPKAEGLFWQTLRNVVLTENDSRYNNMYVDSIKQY
The experiment in a line: TLR8 inhibition reporter assay (HEK-Blue SEAP). The class given is cell-based. As to conditions: HEK-Blue cells overexpressing human TLR8, R848 15.9 μM, 22 hour incubation. The gist of the method: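 HEK-Blue cells overexpressing human TLR7, TLR8 or TLR9 carry a SEAP reporter driven by NF-κB/AP-1 sites. Compounds (0.05 nM–50 μM) were preincubated 30 min at room temperature, then cells were stimulated with gardiquimod 7.5 μM (TLR7), R848 15.9 μM (TLR8) or ODN2006 5 nM (TLR9) for 22 h at 37 °C.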
Broadly, the pIC50 is the IC50 on a negative log10 scale, so that one unit is a factor of ten. Low readings indicate a high IC50, high ones a low IC50. For `COc1cc(-c2cc3[nH]c(=O)n([C@H]4CC[C@@H](NCC(C)(C)C)CC4)c3cc2C(C)C)cn2ncnc12` [Example 197, 6-isopropyl-5-(8-methoxy-[1,2,4]triazolo[1,5-a]pyridin-6-yl)-1-((1s,4s)-4-(neopentylamino)cyclohexyl)-1,3-dihydro-2H-benzo[d]imidazol-2-one], the pIC50 was 10.40.

As to `CCC(CC)CN[C@H]1CC[C@@H](n2c(=O)[nH]c3cc(-c4cc(OC)c5ncnn5c4)c(C(C)C)cc32)CC1` [Example 194], the pIC50 is 9.96.

`CCN1CCC[C@@H](n2c(=O)[nH]c3cc(-c4cc(C)c5ncnn5c4)c(C)cc32)C1` [Example 16, (R)-1-(1-ethylpiperidin-3-yl)-6-methyl-5-(8-methyl-[1,2,4]triazolo[1,5-a]pyridin-6-yl)-1,3-dihydro-2H-benzo[d]imidazol-2-one] had a pIC50 of 7.50.

The molecule `COCCN1CCC(n2c(=O)[nH]c3cc(-c4cc(OC)c5ncnn5c4)c(C(C)C)cc32)CC1` [Example 223, 6-isopropyl-5-(8-methoxy-[1,2,4]triazolo[1,5-a]pyridin-6-yl)-1-(1-(2-methoxyethyl)piperidin-4-yl)-1,3-dihydro-2H-benzo[d]imidazol-2-one] showed a pIC50 of 8.05.

In turn, `CCCN[C@H]1CC[C@@H](n2c(=O)[nH]c3cc(-c4cc(OC)c5ncnn5c4)c(C(C)C)cc32)CC1` [Example 195, 6-isopropyl-5-(8-methoxy-[1,2,4]triazolo[1,5-a]pyridin-6-yl)-1-((1 s,4s)-4-(propylamino)cyclohexyl)-1,3-dihydro-2H-benzo[d]imidazol-2-one] had a negative-log IC50 (pIC50) of 9.57.

The molecule `Cc1c(-c2cc3[nH]c(=O)n([C@H]4CC[C@@H](NCC5CCOCC5)CC4)c3cc2C(C)C)cn2ncnc2c1C` [Example 200, 5-(7,8-dimethyl-[1,2,4]triazolo[1,5-a]pyridin-6-yl)-6-isopropyl-1-((1s,4s)-4-(((tetrahydro-2H-pyran-4-yl)methyl)amino)cyclohexyl)-1,3-dihydro-2H-benzo[d]imidazol-2-one] had a pIC50 of 9.89.

The molecule `COc1cc(-c2cc3[nH]c(=O)n(C4CCC(N5CC(O)(C(F)(F)F)C5)CC4)c3cc2C(C)C)cn2ncnc12` (single isomer, unassigned) [Example 241, 1-(4-(3-hydroxy-3-(trifluoromethyl)azetidin-1-yl)cyclohexyl)-6-isopropyl-5-(8-methoxy-[1,2,4]triazolo[1,5-a]pyridin-6-yl)-1,3-dihydro-2H-benzo[d]imidazol-2-one] had a pIC50 of 9.31.

In the case of `COc1cc(-c2cc3[nH]c(=O)n([C@H]4CC[C@@H](NC5CCOCC5)CC4)c3cc2C(C)C)cn2ncnc12` [Example 193, 6-isopropyl-5-(8-methoxy-[1,2,4]triazolo[1,5-a]pyridin-6-yl)-1-((1s,4s)-4-((tetrahydro-2H-pyran-4-yl)amino)cyclohexyl)-1,3-dihydro-2H-benzo[d]imidazol-2-one], the negative-log IC50 (pIC50) was 9.32.

Consider `CCc1cc2c(cc1-c1cc(OC)c3ncnn3c1)[nH]c(=O)n2[C@@H]1CCCN(C2CCCOC2)C1` (stereo partly drawn) [Example 215, 6-ethyl-5-(8-methoxy-[1,2,4]triazolo[1,5-a]pyridin-6-yl)-1-((3R)-1-(tetrahydro-2H-pyran-3-yl)piperidin-3-yl)-1,3-dihydro-2H-benzo[d]imidazol-2-one], for which the pIC50 was 7.86.

The molecule `CCC(CC)CN[C@H]1CC[C@@H](n2c(=O)[nH]c3cc(-c4cn5ncnc5c(C)c4C)c(C(C)C)cc32)CC1` [Example 198] gave a pIC50 of 9.82.

Molecule `CCc1cc2c(cc1-c1cc(OC)c3ncnn3c1)[nH]c(=O)n2[C@@H]1CCCN(CC(C)(C)C)C1` [Example 180, (R)-6-ethyl-5-(8-methoxy-[1,2,4]triazolo[1,5-a]pyridin-6-yl)-1-(1-neopentylpiperidin-3-yl)-1,3-dihydro-2H-benzo[d]imidazol-2-one] gave a pIC50 of 8.37.

With `COc1cc(-c2cc3[nH]c(=O)n([C@H]4CCCN(CCS(C)(=O)=O)C4)c3cc2C(C)C)cn2ncnc12` [Example 222, (S)-6-isopropyl-5-(8-methoxy-[1,2,4]triazolo[1,5-a]pyridin-6-yl)-1-(1-(2-(methylsulfonyl)ethyl)piperidin-3-yl)-1,3-dihydro-2H-benzo[d]imidazol-2-one], the negative-log IC50 (pIC50) is 7.27.

For the molecule `Cc1cc2c(cc1-c1cc(C)c3ncnn3c1)[nH]c(=O)n2[C@@H]1CCCN(C(C)C)C1` [Example 17, (R)-1-(1-isopropylpiperidin-3-yl)-6-methyl-5-(8-methyl-[1,2,4]triazolo[1,5-a]pyridin-6-yl)-1,3-dihydro-2H-benzo[d]imidazol-2-one], the negative logarithm of the IC50 (pIC50) is 7.84.

Take `CCc1cc2c(cc1-c1cc(OC)c3ncnn3c1)[nH]c(=O)n2[C@@H]1CCCN(CC)C1` [Example 171, (R)-6-ethyl-1-(1-ethylpiperidin-3-yl)-5-(8-methoxy-[1,2,4]triazolo[1,5-a]pyridin-6-yl)-1,3-dihydro-2H-benzo[d]imidazol-2-one]: the pIC50 is 8.52.
